Data: patent EP0043274A2, “Antithrombotic treatment” (priority 1980, dated 1982)
Values joined by “and” are separate entries in the source; they are usually repeats but may differ in a detail not shown here. Equal values may be shown once.

Columns and labels:
[1] = tested on: platelet thrombus formation on damaged aortic wall; test: Indium 111 platelet labeling technique in rabbits (platelet accumulation at vessel wall); format: in vivo
Protocol: In medicine, for example, arterial thrombosis is diagnosable by clinical manifestations, by arteriography, and recently, by an Indium 111 platelet labeling technique (see, for example, the article entitled "Differential , Effects of Two Doses of Aspirin on Platelet-Vessel Wall Interaction In Vivo" by K.K. Wu et al being published in the Journal of Clinical Investigtion, August, 1981).
Sodium bisulfite is evaluated under in vivo conditions as an antithrombotic agent using the anti-indium 111 platelet labeling technique in rabbits (see the Wu et al article above cited). The material was administered by intravenous injection (72.80 milligram per kilogram of animal body weight). […]

FIBRINOGEN = target: T1, FIBRINOGEN (Homo sapiens, UniProt P02671+P02675+P02679); test: Coagulation factor assay (Biggs): fibrinogen; format: biochemical; settings: for FIBRINOGEN (mg%): U.S.P. grade, control 218
T1 construct: from tissue; host or cells: human plasma
T1 sequence (P02671 20-629 limits assumed): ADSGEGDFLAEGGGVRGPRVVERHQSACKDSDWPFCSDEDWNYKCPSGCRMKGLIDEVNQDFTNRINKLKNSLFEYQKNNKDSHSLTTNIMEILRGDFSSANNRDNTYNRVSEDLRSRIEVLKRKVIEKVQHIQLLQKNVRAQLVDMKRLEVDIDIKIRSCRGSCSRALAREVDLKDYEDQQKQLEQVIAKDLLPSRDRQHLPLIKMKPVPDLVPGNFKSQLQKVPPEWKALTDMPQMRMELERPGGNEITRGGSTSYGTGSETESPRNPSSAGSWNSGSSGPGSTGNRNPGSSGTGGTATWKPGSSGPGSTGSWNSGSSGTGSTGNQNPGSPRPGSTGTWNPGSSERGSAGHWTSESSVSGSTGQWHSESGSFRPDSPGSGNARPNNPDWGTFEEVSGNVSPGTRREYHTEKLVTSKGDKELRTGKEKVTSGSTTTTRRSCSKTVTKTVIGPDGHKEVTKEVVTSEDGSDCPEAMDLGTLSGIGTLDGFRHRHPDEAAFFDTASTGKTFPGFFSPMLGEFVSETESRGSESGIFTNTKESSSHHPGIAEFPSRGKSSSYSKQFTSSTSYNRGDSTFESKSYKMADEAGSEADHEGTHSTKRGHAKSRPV
T1 sequence (P02675 31-491): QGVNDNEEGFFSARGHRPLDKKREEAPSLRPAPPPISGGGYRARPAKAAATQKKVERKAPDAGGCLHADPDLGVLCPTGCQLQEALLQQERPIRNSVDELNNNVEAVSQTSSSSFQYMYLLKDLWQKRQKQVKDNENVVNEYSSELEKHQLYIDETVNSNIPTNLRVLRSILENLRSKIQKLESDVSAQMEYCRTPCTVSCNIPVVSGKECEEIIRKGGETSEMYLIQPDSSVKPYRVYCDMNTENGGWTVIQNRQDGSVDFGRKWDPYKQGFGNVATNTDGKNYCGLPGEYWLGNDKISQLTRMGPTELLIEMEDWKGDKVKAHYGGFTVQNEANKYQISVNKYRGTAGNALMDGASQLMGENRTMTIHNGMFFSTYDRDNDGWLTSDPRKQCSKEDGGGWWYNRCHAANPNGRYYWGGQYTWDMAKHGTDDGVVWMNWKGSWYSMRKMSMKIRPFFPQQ
T1 sequence (P02679 27-453): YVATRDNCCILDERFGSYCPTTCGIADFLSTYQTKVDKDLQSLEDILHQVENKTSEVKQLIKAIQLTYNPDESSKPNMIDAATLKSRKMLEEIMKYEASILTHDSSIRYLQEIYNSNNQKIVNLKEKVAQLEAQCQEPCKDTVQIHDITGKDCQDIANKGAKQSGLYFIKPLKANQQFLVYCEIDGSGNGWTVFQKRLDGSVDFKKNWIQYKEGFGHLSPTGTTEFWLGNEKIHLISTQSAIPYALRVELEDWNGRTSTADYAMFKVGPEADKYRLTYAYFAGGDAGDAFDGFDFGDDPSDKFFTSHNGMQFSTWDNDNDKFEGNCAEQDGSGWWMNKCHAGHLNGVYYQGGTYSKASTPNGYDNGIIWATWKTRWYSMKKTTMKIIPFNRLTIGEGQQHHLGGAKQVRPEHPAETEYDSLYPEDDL
Protocol: (§1) The effect of U.S.P. grade sodium bisulfite on blood coagulation factors is evaluated by standard procedures (Biggs) and the results are shown in Table III below.
(§2) References for PT, PTT, and assays of all the coagulation factors can be found in a standard textbook, entitled "Human Blood Coagulation, Haemostasis and Thrombosis", edited by Rosemary Biggs, published by Blackwell Scientific Publications, Oxford, England (2nd edition), pages 670-705, 1976.

platelet rich plasma = test: Platelet aggregation in platelet rich plasma, ADP stimulus (Example 25); format: cell-based; settings: plasma first treated with the compound
From the text: Plasma was centrifuged at 1000 r.p.m. (200 g) to prepare a platelet rich plasma. Using adosine diphosphate (ADP) as a stimulous, rapid aggregation of platelets in the plasma was efected. On the other hand, when such plasma is first treatd with (a) tetramethyl ammonium sulfite, (b) tetramethyl ammonium bisulfite, and then (c) tetrabutyl

RATS = test: Rats fed bait containing 0.5% sodium bisulfite; format: in vivo
From the text: Five rats, each in a separate cage, were given a bait containing 0.5 percent by weight of sodium bisulfite. The bait consisted of cracked grains (wheat, corn, millet, and corn meal). The amounts of bait eaten are summarized for an eleven day period.

blood = test: Storage of blood samples with added sodium bisulfite solution; set-up: species or system human; settings: about 4 cc blood + about 10 drops of 10 weight percent solution; about 2 1/2 years at ambient temperatures
Protocol: Samples of about 4 cc each of blood were prepared. To each of these was added about 10 drops of a solution 10 weight percent and sodium bisulfite in distilled water. Each sample was then sealed into a glass vial.

FACTOR V = target: T2, FACTOR V (Homo sapiens, UniProt P12259); test: Coagulation factor assay (Biggs): Factor V; format: biochemical; settings: U.S.P. grade, control 75
T2 construct: from tissue; host or cells: human plasma
T2 sequence (P12259 29-2224): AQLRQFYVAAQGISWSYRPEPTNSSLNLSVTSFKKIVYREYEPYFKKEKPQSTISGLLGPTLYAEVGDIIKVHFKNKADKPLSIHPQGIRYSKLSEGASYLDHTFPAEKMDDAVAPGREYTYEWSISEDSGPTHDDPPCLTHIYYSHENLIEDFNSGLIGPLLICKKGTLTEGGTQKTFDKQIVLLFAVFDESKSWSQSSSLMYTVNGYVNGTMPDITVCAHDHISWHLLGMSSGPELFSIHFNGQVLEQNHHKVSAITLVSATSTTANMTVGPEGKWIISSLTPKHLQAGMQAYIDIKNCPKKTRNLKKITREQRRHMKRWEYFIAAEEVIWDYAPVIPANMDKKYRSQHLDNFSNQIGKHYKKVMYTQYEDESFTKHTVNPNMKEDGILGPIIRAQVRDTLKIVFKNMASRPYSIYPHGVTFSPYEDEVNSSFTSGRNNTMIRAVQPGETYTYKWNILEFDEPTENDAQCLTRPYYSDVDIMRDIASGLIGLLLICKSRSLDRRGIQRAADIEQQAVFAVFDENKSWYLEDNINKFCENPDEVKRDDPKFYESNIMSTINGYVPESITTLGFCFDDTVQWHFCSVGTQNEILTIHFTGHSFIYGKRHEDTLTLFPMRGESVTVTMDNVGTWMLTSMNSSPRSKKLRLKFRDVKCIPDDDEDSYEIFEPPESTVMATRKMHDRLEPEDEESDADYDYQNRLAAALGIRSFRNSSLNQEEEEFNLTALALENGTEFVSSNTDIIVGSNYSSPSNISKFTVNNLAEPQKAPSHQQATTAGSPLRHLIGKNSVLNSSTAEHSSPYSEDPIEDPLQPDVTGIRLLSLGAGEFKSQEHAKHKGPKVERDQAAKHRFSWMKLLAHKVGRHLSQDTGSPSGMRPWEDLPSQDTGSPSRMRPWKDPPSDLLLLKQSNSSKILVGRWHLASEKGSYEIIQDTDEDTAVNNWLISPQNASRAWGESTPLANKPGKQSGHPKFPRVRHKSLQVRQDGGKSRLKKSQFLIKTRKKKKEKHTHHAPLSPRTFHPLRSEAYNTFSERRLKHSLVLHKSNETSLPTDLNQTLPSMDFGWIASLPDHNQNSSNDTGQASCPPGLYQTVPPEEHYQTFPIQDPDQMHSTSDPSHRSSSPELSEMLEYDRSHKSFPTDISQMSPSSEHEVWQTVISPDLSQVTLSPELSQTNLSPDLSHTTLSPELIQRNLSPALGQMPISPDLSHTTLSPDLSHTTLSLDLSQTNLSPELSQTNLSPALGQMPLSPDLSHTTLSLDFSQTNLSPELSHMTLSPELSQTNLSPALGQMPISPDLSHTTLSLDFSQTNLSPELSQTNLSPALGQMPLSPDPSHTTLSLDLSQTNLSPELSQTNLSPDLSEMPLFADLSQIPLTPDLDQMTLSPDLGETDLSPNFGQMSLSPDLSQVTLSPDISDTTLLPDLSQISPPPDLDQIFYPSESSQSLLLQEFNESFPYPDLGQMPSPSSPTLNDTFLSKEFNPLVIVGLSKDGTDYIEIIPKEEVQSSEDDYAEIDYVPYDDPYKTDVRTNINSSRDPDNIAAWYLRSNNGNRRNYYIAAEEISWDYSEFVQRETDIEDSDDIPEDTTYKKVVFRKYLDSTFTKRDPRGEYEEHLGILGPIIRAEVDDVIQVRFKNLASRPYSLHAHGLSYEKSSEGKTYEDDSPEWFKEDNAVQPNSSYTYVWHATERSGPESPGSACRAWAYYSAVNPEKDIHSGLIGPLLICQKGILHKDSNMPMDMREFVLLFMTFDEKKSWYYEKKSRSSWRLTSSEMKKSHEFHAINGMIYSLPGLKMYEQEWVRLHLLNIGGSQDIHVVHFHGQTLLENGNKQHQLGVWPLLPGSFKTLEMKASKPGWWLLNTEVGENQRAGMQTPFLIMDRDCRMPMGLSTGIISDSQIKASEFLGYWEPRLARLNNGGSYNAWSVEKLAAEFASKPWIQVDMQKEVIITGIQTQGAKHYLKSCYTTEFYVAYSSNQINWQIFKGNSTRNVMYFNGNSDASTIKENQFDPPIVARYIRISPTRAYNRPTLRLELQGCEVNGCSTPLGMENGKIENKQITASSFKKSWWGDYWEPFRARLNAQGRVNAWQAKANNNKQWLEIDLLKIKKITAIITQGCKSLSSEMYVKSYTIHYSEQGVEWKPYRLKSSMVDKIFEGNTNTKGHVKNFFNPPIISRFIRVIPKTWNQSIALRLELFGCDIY
Protocol: as §1, §2

F VIII = target: T3, F VIII (Homo sapiens, UniProt P00451); test: Coagulation factor assay (Biggs): Factor VIII; format: biochemical; settings: for F VIII (%): U.S.P. grade, control 57
T3 construct: from tissue; host or cells: human plasma
T3 sequence (P00451 20-2351): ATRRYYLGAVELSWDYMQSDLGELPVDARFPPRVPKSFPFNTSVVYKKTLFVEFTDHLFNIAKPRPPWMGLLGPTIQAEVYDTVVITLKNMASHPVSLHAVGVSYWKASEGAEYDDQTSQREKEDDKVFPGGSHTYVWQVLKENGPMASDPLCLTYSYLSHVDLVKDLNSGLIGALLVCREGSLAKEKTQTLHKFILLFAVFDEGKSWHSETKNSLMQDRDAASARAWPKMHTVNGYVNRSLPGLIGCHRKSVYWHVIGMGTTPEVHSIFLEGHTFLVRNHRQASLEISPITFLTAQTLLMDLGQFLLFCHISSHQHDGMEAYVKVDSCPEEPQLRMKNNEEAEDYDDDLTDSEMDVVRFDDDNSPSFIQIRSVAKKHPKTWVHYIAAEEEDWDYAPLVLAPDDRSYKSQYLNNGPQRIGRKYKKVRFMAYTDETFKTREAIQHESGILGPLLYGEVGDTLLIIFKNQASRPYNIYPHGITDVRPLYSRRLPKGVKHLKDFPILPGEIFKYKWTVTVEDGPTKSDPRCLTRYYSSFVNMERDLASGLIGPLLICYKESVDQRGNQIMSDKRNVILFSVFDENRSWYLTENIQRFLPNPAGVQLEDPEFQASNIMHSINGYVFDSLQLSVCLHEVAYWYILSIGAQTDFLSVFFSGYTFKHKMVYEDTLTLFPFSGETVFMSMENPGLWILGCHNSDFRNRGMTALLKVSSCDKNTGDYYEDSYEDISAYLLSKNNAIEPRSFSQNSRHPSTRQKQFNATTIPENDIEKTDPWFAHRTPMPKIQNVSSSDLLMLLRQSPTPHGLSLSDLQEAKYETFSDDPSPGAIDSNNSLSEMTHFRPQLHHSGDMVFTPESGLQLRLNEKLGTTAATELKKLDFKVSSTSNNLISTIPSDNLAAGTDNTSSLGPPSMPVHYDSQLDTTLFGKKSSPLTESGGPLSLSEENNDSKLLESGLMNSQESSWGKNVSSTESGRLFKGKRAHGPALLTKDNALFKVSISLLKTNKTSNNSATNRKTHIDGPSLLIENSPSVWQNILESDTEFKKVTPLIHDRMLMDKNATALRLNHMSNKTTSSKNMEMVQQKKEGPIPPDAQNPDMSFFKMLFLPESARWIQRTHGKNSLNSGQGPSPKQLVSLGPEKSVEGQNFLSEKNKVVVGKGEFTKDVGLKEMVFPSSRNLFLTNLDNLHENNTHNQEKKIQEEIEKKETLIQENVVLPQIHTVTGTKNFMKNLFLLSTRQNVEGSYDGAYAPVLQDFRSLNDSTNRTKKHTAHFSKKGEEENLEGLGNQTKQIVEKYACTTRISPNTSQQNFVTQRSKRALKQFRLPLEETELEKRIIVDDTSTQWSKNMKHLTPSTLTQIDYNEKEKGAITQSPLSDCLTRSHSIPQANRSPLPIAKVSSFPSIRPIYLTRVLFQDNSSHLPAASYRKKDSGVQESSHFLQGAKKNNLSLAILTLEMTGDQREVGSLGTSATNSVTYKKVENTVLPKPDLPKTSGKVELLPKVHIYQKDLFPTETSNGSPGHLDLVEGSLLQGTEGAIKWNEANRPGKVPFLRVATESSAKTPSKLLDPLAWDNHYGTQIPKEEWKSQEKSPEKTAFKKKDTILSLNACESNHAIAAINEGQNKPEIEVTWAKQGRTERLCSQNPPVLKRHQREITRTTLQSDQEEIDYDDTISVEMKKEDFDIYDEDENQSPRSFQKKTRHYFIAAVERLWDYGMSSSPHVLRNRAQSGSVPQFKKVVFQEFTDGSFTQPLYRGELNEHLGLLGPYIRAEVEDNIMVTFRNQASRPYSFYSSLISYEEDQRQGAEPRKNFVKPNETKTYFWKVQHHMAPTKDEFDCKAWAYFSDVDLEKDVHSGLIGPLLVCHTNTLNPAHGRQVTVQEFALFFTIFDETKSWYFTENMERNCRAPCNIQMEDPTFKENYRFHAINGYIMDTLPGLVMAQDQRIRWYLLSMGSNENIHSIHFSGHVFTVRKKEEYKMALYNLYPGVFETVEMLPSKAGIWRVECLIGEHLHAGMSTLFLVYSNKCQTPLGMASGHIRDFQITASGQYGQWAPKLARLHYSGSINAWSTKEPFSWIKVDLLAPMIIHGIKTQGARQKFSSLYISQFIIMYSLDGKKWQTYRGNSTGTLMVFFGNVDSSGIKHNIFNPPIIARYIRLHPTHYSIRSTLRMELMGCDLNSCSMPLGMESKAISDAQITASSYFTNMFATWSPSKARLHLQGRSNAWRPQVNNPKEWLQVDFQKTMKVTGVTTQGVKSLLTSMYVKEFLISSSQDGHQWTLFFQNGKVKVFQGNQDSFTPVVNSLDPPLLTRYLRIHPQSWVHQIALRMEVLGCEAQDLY
Protocol: as §1, §2

CCN(CC)CC.O=S(O)O [TRIETHYL AMINE BISULFITE, triethyl amine bisulfite]
mortality of another rabbit so tested ([1]; intervenous injection 127.39 mg/kg): died | reduction in accumulation of platelet thrombus ([1]; intervenous injection 127.39 mg/kg, equivalent to 0.01 molar concentrations in blood): about 30% | Fibrinogen (%) (FIBRINOGEN; mean of two experiments, control 205): 125%

C[N+](C)(C)C [Tetramethyl-ammonium bisulfite]
platelet aggregation, adosine diphosphate (ADP) as a stimulous (platelet rich plasma): inhibited

Sodium bisulfite
mortality (RATS; 2 days, rats 1 and 4): DIED | FIRST DAY BLOOD FACTOR PT (RATS; rat 5): 27 | FIRST DAY BLOOD FACTOR PT, increase (RATS; rats 1-3): 26% increase and 24% increase and 28% increase | coagulation of stored blood samples (blood): have not coagulated | FACTOR V (%) (FACTOR V; 0.01 mg/ml): 74% | FACTOR V (%) (FACTOR V; 0.05 mg/ml): 72% | FACTOR V (%) (FACTOR V; 0.1 mg/ml): 80% | FACTOR V (%) (FACTOR V; 0.5 mg/ml): 70% | FACTOR V (%) (FACTOR V; 1.0 mg/ml): 60% | FACTOR V (%) (FACTOR V; 5.0 mg/ml): 54% | effect on Factor VIII (F VIII): mildly affected | F VIII (%) (F VIII; 0.01 mg/ml): 62% | F VIII (%) (F VIII; 0.05 mg/ml): 68% | F VIII (%) (F VIII; 0.1 mg/ml): 55% | F VIII (%) (F VIII; 0.5 mg/ml): 58% | F VIII (%) (F VIII; 1.0 mg/ml): 29% | F VIII (%) (F VIII; 5.0 mg/ml): 11% | reduces accumulation of platelet thrombus at the damaged vessel wall ([1]; intravenous injection 72.80 milligram per kilogram): The findings indicate that the active agent reduces accumulation of platelet thrombus at the damaged vessel wall by 70%. | Platelet Accumulation II. at normal vessel wall % ([1]; intravenous injection 72.80 milligram per kilogram, rabbits A and B, control 0.03± 0.02): 0.08% | Platelet Accumulation II. at normal vessel wall cpm/gm ([1]; intravenous injection 72.80 milligram per kilogram, rabbits A and B, control 72,140± 39,040): 98,611 cpm/gm and 83,066 cpm/gm | Platelet Accumulation I. at damaged vessel wall cpm/gm ([1]; intravenous injection 72.80 milligram per kilogram, rabbits A and B, count per minute per gram dry weight of tissue, control 1,167,820± 21,310): 133,986 cpm/gm and 146,630 cpm/gm | Platelet Accumulation I. at damaged vessel wall % ([1]; intravenous injection 72.80 milligram per kilogram, rabbits A and B, percentage of injected radioactivity per gram dry weight of tissue, control 0.44± 0.08): 0.11% and 0.15% | FIBRINOGEN (mg%) (FIBRINOGEN; 0.01 mg/ml): 222 mg% | FIBRINOGEN (mg%) (FIBRINOGEN; 0.05 mg/ml): 228 mg% | FIBRINOGEN (mg%) (FIBRINOGEN; 0.1 mg/ml): 217 mg% | FIBRINOGEN (mg%) (FIBRINOGEN; 0.5 mg/ml): 190 mg% | FIBRINOGEN (mg%) (FIBRINOGEN; 1.0 mg/ml): 185 mg% | FIBRINOGEN (mg%) (FIBRINOGEN; 5.0 mg/ml): 130 mg%
